Test results reported in paper PMC7246848, “Comparative Cerebroprotective Potential of D- and L-Carnosine Following Ischemic Stroke in Mice” (International Journal of Molecular Sciences, 2020).
Read-outs that look alike come from different tables or passages of the source.

What was measured:
[1] = Serum pharmacokinetics after single intravenous injection (LC-MS/MS); format: in vivo; conditions: mice, 1000 mg/kg IV; for serum levels (molar): converted from μg/mL; for half-life: naive pooled noncompartmental analysis
Method: Mice were randomly divided into the treatment groups (n = 4~5 mice/group for each time point) and given a single intravenous injection of saline or L-carnosine (1000 mg/kg) or D-carnosine (1000 mg/kg) through the tail vein. Anesthesia was induced by isoflurane inhalation and maintained during intravenous injection. Blood samples were collected by cardiac puncture at 0, 5, 15, 30, 60, 180 and 360 min postadministration of carnosine. Blood was incubated at room temperature for 30 min to allow clotting to occur, followed by centrifugation at 12,000 g to isolate serum. Remaining blood was removed from the body through perfusion with phosphate-buffered saline, and the brain was carefully isolated. Aliquots of brain tissue (300 mg) and serum (150 μL) were stored at −70 °C and used for analysis.
Carnosine levels in serum or brain were determined using liquid chromatography tandem-mass spectrometry (LC-MS/MS) as previously described with a slight modification. H-Tyr-His-OH (Bachem AG, Köln, Germany) was used as internal standard (IS). The entire procedure for sample and standard preparation was carried out on ice. Serum (150 μL) or homogenized brain tissue (300 mg) were deproteinized using an ultrasonicator (VCX 500, Sonics & Materials Inc., Newtown, CT, USA) with 1 mL of 1 M TCA and 50 μL of 3 M TCA, respectively. After spiking the IS (10 μg for brain and 200 ng for serum), each homogenate was centrifuged at 9000 g for 15 min at 4 °C. The supernatant was used for the assay of carnosine concentrations. Calibration curves were obtained by spiking known concentrations of L- or D-carnosine (Sigma-Aldrich, St. Louis, MO, USA) into homogenates of brain or serum obtained from untreated mice, and samples were processed as described above.
Chromatographic separation and quantitation were performed using an LC-MS/MS system composed of HPLC (Ultimate 3000, Dionex, Rome, Italy) coupled with electrospray ionization (ESI) and triple quadrupole-ion trap mass spectrometry (3200 Qtrap, AB Sciex, Ontario, Canada). Synergi C18-L (Phenomenex 150 × 4.6 mm, 4 μm particle size) column was used with a 0.8 mL/min flow rate of mobile phase. Isocratic elution of 75/25 (5 mM heptafluorobutyric acid/acetonitrile) was used for brain samples and gradient elution (95/5 to 80/20 for 6 min and holding for 4 min) was used for serum samples. The injection volume was 5 μL. For ESI source, ion spray voltage was 4.5 kV and capillary temperature was set at 650 °C which provided optimum ionization of each analyte. A multiple reaction monitoring (MRM) in positive mode was used to detect carnosine (m/z 227 > 110 as quant ion, 156 and 83 as qualifier), histidine (m/z 156 > 110 as quant ion, 83 and 82 as qualifier) and IS (m/z 319 > 110 as quant ion, 156 and 91 as qualifier). Pharmacokinetic parameters were calculated by noncompartmental analysis using a sparse sampling and naïve pooled approach (WinNonLin (Phoenix 64 Build 8.0.0.3176), Certara, Mountain View, CA, USA).

[2] = test system: transient focal cerebral ischemia (MCAO); test: Transient focal cerebral ischemia (60 min t-MCAO), infarct volume by TTC staining; format: in vivo, mice; conditions: for infarct volume reduction in comparison to saline: 48 h post-t-MCAO; for infarct volume reduction: 1000 mg/kg intravenously 2 h post-t-MCAO, 48 h post-MCAO
Method: Mice were anesthetized by inhalation of 5% isoflurane (in 100% Oxygen) and maintained at 1.5% isoflurane throughout the surgical procedure. Body temperature was monitored throughout surgery using a rectal probe and maintained at 37 + 0.5 °C using a heating pad (World Precision Instruments, Hitchin, Hertfordshire, UK). Laser Doppler flowmetry (Moor Instruments, Sussex, UK) was used to monitor cerebral blood flow. Focal cerebral ischemia was induced by middle cerebral artery occlusion (MCAO) by insertion of an intraluminal monofilament. […] A midline incision was made on the ventral side of the neck and the left common carotid artery (CCA) was isolated and ligated. Another ligature was tied on the left external carotid artery (ECA) and a loose knot was tied onto the internal carotid artery (ICA) as well as CCA just below the bifurcation. A very fine incision was made on the lower end of CCA and the monofilament (Doccol Corporation, Sharon, MA, USA) was advanced approximately 9 mm distal to the bifurcation into the ICA until it reached the distal end of middle cerebral artery (MCA). Relative cerebral blood flow was monitored for initial 10 min postfilament insertion to confirm at least 70% reduction of […] values. The animals were kept under anesthesia for the ischemic period of 60 min, after which the filament was withdrawn and reperfusion (confirmed using LD) was allowed to take place. The knots were untied and the animals were allowed to recover at 37 °C for 1 h before they were transferred to their normal cages. In the first set of experiments, 60 min transient MCAO (t-MCAO) was induced in mice weighing 20-25 g. At the onset of reperfusion, saline or different doses of drugs (L- and D-carnosine; 100, 500 or 1000 mg/kg) were delivered intraperitoneally (IP). Postrecovery, the animals were allowed to recover, placed back in their normal environment for 48 h and then euthanized. (IP administration was used as it was technically difficult to do IV injections at reperfusion). In a second set of experiments, drugs and saline were administered intravenously 2 h post-t-MCAO at 1000 mg/kg. Forty-eight hours post-t-MCAO, mice were deeply anaesthetized with 5% isoflurane, brains were removed and coronal slices with a thickness of 1 mm were prepared. Brain slices were immersed in 2% TTC (Sigma Aldrich) solution and incubated at 37 °C for 20 min. The area of infarction was traced and measured using image J analysis software. The infarct area was also corrected for edema: (1-(total ipsilateral hemisphere-infarct region)/total contralateral hemisphere) × 100. Total infarct volume was calculated as the sum of all infarct areas multiplied by each section thickness.

primary mouse neurons [3] = test: Oxidative stress assay: ROS accumulation (DCF fluorescence) after B27 withdrawal; format: cell-based; conditions: 24 h B27 withdrawal
Method: (§1) Primary cortical neurons were prepared from embryonic day 16 C57bl/6J mouse pups or embryonic day 18 Wistar rat pups. Briefly, cerebral cortices were physically and chemically dissociated with 0.25% trypsin-EDTA (Gibco, Waltham, MA, USA) in dissociation medium (HBSS) at 37 °C for 15 min followed by trituration. The dissociated cells were checked under a microscope for single cells and plated out on poly-L-lysine (Sigma-Aldrich) -coated, 24-well plates (187,500 cells/well) for the excitotoxicity assays, and 96-well plates (47,000 cells/well) for the oxidative stress assays. Neuronal cultures were maintained in B27 neurobasal medium with Glutamax and pen-strep (Gibco) in a 5% CO2 incubator at 37 °C, and cells were used at 11–14 days in vitro for experiments.
Cytosolic oxidative stress was determined using dichlorofluorescein (DCF) fluorescence. Primary neurons were loaded with 20 µM 2′, 7′-dichlorodihydrofluorescein diacetate (H2DCFDA; Invitrogen) for 45 min, washed and oxidative stress was induced by B27-withdrawal for 24 h, in the presence or absence of L- or D-carnosine. The fluorescence of oxidized DCF was read after 24 h at Ex485 nm/Em530 nm using the Pherastar FS platereader.

mouse cortical neurons = test: NMDA excitotoxicity assay, LDH release; format: cell-based; conditions: NMDA 30 µM
Method: as §1
(§2) Neurons were pretreated with L- or D-carnosine for 24 h prior to NMDA stimulation (30 µM) for 30 min. Post-NMDA stimulation, the cells were washed and incubated back in the original medium in the presence or absence of L- and D-carnosine. Wells were washed and the B27-neurobasal medium was replaced in the presence or absence of L- or D-carnosine. Cytotoxicity was measured after 24 h using the Pierce cytotoxicity lactate dehydrogenase (LDH) assay kit. Cell viability was measured by 3-[4–Dimethylthiazol-2-yl]-2,5-diphenyltetrazolium bromide (MTT) assay, which reflects cell metabolism. After NMDA removal, the cells were evaluated for cell viability after 24 h with the addition of fresh media containing each drug. MTT (Sigma Aldrich; final 5 mg/mL) was added to each well and the cells were incubated for 2 h at 37 °C in the dark. Insoluble formazan was dissolved by the addition of 100 μL of DMSO and the absorbance (570 nm) was measured using a multimode plate reader (EnSpire, PerkinElmer, Waltham, MA, USA).

rat cortical neurons = test: NMDA excitotoxicity assay, LDH release; format: cell-based; conditions: NMDA 30 µM
Method: as §1, §2

primary mouse neurons [4] = test: NMDA excitotoxicity assay, cell viability by MTT; format: cell-based; conditions: 24 h pretreatment, 24 h after NMDA
Method: as §1, with “Neuronal cultures were maintained in B27 neurobasal medium with Glutamax and pen-strep (Gibco) in a 5% CO2 incubator at 37 °C, and cells were used at 11–14 days in vitro for experiments.” left out
Neurons were pretreated with L- or D-carnosine for 24 h prior to NMDA stimulation (30 µM) for 30 min. […] Cytotoxicity was measured after 24 h using the Pierce cytotoxicity lactate dehydrogenase (LDH) assay kit. Cell viability was measured by 3-[4–Dimethylthiazol-2-yl]-2,5-diphenyltetrazolium bromide (MTT) assay, which reflects cell metabolism. After NMDA removal, the cells were evaluated for cell viability after 24 h with the addition of fresh media containing each drug. […] Insoluble formazan was dissolved by the addition of 100 μL of DMSO and the absorbance (570 nm) was measured using a multimode plate reader (EnSpire, PerkinElmer, Waltham, MA, USA).

[5] = format: in vivo; conditions: mice, doses up to 1000 mg/kg
[6] = design: method as in PMID 19301317; conditions: cited from earlier work
[7] = design: method as in PMID 19301317; conditions: cited from earlier work; remark: listed apart in the source
[8] = design: method as in PMID 23850642; conditions: rats, 15 min after intravenous injection of 2000 mg/kg; cited from earlier work
[9] = 100 mg/kg IP at onset of reperfusion
[10] = 500 mg/kg IP at onset of reperfusion
[11] = 1000 mg/kg IP at onset of reperfusion

Row | Structure (SMILES) | serum levels (molar) ([1]; 5 min after injection) [µM] | infarct volume reduction in comparison to saline [2, 9] [%] | infarct volume reduction in comparison to saline [2, 10] [%] | infarct volume reduction in comparison to saline [2, 11] [%] | infarct volume reduction [2] [%] | attenuation of ROS accumulation (primary mouse neurons [3]; 200 µM) [%] | reduction of cell death (LDH assay) (mouse cortical neurons; 10 µM) | reduction of cell death (LDH assay) (mouse cortical neurons; 100 µM) | reduction of cell death (LDH assay) (mouse cortical neurons; 200 µM) [%] | reduction of cell death (LDH assay) (rat cortical neurons; 200 µM) [%] | protection against decrease of cell viability by NMDA (MTT) (primary mouse neurons [4]) | safety and tolerability [5] | other results
1 | NCCC(=O)N[C@H](Cc1cnc[nH]1)C(=O)O [D-carnosine] | 25700 | 23.6 | 27.8 | 57.2 | 52.1 | 14.5 | 13.1% | 13.3% | 15 | 22.8 | significant protection | safe and well tolerated | AUC ([1]; serum): 108112 µg·min/mL; CL ([1]; serum): 9.23 mL/min/kg; Vss ([1]; serum): 0.12 L/kg; Cmax (5 min) ([1]; serum, 5 min after injection): 5818 µg/mL; half-life ([1]; serum): 1.25 h; reduction of cell death (LDH assay) (rat cortical neurons; 10 µM): 21.9%; reduction of cell death (LDH assay) (rat cortical neurons; 100 µM): 26.4%; stability in human plasma [6]: stable in human plasma; ability to cross the blood brain barrier [7]: able to cross the blood brain barrier
2 | NCCC(=O)N[C@@H](Cc1cnc[nH]1)C(=O)O [L-carnosine, β-alanyl-L-histidine] | 17700 | 33.4 | 30.94 | 47.4 | 53.8 | 19.3 | did not show neuroprotection | did not show neuroprotection | 12.2 | 18.5 | significant protection | safe and well tolerated | clearance ([1]; mouse, serum): 11.1 mL/min/kg; Cmax ([1]; mouse, serum, 5 min after injection): 4010 µg/mL; half-life ([1]; mouse, serum, read-out: Half-Life): 1.3 h; AUC ([1]; mouse, serum, read-out: AUC (converted)): 89800 µg·min/mL; Vd ([1]; mouse, serum, read-out: Vss): 0.223 L/kg; attenuation of ROS accumulation (primary mouse neurons [3]; 100 µM): 18.6%; serum levels of carnosine [8]: 15~20 mmol/L
